Results from patent US9409884B2 (Rigel Pharmaceuticals, Inc., priority 2012, dated 2016).

molecular target: AMPK; test: AMPK activation, enzyme-linked immunosorbent assay; type: biochemical; details: Table 14, compounds of Table 7
How it was run: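 Read-out: ELISA, used to detect compound-driven activation of AMPK.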

| SMILES | EC50 |
| --- | --- |
| Cc1nc2cc(OC3CCN(C(=O)c4ccc(C(=O)NC5CCN(Cc6ccc(OC(F)(F)F)cc6)CC5)cn4)CC3)ccc2s1 [Compound 7-23, 6-(4-(2-methylbenzo[d]thiazol-5-yloxy)piperidine-1-carbonyl)-N-(1-(4-(trifluoromethoxy)benzyl)piperidin-4-yl)nicotinamide] | < 1000 nM |
| COc1ccc(CN2CCC(NC(=O)c3ccc(C(=O)N4CCC(Oc5ccc6sc(C)nc6c5)CC4)nc3)CC2)cc1 [Compound 7-24, N-(1-(4-methoxybenzyl)piperidin-4-yl)-6-(4-(2-methylbenzo[d]thiazol-5-yloxy)piperidine-1-carbonyl)nicotinamide] | < 1000 nM |
| Cc1nc2cc(OC3CCN(C(=O)c4ccc(C(=O)Nc5ccc(Oc6ccc(C#N)cc6)nc5)cn4)CC3)ccc2s1 [Compound 7-25, N-(6-(4-cyanophenoxy)pyridin-3-yl)-6-(4-(2-methylbenzo[d]thiazol-5-yloxy)piperidine-1-carbonyl)nicotinamide] | < 1000 nM |
| Cn1cnc2cc(OC3CCN(C(=O)c4ccc(C(=O)NC5CCN(Cc6ccc(C#N)cc6)CC5)cn4)CC3)ccc21 [Compound 7-38, N-(1-(4-cyanobenzyl)piperidin-4-yl)-6-(4-(1-methyl-1H-benzo[d]imidazol-5-yloxy)piperidine-1-carbonyl)nicotinamide] | 1000 to 10000 nM |
| COc1ccc(CN2CCC(NC(=O)c3ccc(C(=O)N4CCC(Oc5ccc6c(c5)ncn6C)CC4)nc3)CC2)cc1 [Compound 7-40, N-(1-(4-methoxybenzyl)piperidin-4-yl)-6-(4-(1-methyl-1H-benzo[d]imidazol-5-yloxy)piperidine-1-carbonyl)nicotinamide] | 1000 to 10000 nM |
| COc1ccc(C(=O)C2CCN(C(=O)c3ccc(C(=O)NC4CCN(Cc5ccc(-n6cccn6)cc5)C[C@H]4F)cn3)CC2)cc1 (stereo partly drawn) [Compound 7-41, N-((3,4-trans)-1-(4-(1H-pyrazol-1-yl)benzyl)-3-fluoropiperidin-4-yl)-6-(4-(4-methoxybenzoyl)piperidine-1-carbonyl)nicotinamide] | < 1000 nM |
| CC(=O)c1ccc(Oc2ccc(NC(=O)c3ccc(C(=O)N4CCC(Oc5ccc6c(c5)ncn6C)CC4)nc3)cn2)cc1 [Compound 7-46, N-(6-(4-acetylphenoxy)pyridin-3-yl)-6-(4-(1-methyl-1H-benzo[d]imidazol-5-yloxy)piperidine-1-carbonyl)nicotinamide] | 1000 to 10000 nM |
| Cc1cc(OC2CCN(C(=O)c3ccc(C(=O)NC4CCN(Cc5ccc(OC(F)(F)F)cc5)C[C@H]4F)cn3)CC2)ccc1S(C)(=O)=O (stereo partly drawn) [Compound 7-47, N-((3,4-trans)-3-fluoro-1-(4-(trifluoromethoxy)benzyl)piperidin-4-yl)-6-(4-(3-methyl-4-(methylsulfonyl)phenoxy)piperidine-1-carbonyl) nicotinamide] | < 1000 nM |
| O=C(NC1CCN(Cc2ccc(OC(F)(F)F)cc2)C[C@H]1F)c1ccc(C(=O)N2CCC(Oc3ccc(S(=O)(=O)C4CC4)cc3)CC2)nc1 (stereo partly drawn) [Compound 7-48, 6-(4-(4-(cyclopropylsulfonyl)phenoxy)piperidine-1-carbonyl)-N-((3,4- trans)-3-fluoro-1-(4-(trifluoromethoxy)benzyl)piperidin-4-yl)nicotinamide] | 1000 to 10000 nM |
| CS(=O)(=O)c1ccc(OC2CCN(C(=O)c3ccc(C(=O)NC4CCN(Cc5ccc(OC(F)(F)F)cc5)C[C@H]4F)cn3)CC2)cc1 (stereo partly drawn) [Compound 7-49, N-((3,4-trans)-3-fluoro-1-(4-(trifluoromethoxy)benzyl)piperidin-4-yl)-6-(4-(4-(methylsulfonyl)phenoxy)piperidine-1-carbonyl) nicotmamide] | 1000 to 10000 nM |
| Cc1nc2cc(OC3CCN(C(=O)c4ccc(C(=O)NC5CCN(Cc6ccc(OC(F)(F)F)cc6)C[C@H]5F)cn4)CC3)ccc2s1 (stereo partly drawn) [Compound 7-51, N-((3,4-trans)-3-fluoro-1-(4-(trifluoromethoxy)benzyl)piperidin-4-yl)-6-(4-(2-methylbenzo[d]thiazol-5-yloxy)piperidine-1-carbonyl)nicotinamide] | < 1000 nM |
| CC(=O)c1ccc(OC2CCN(C(=O)c3ccc(C(=O)NC4CCN(Cc5ccc(OC(F)(F)F)cc5)C[C@H]4F)cn3)CC2)cc1 (stereo partly drawn) [Compound 7-52, 6-(4-(4-acetylphenoxy)piperidine-1-carbonyl)-N-((3,4-trans)-3-fluoro-1-(4-(trifluoromethoxy)benzyl)piperidin-4-yl)nicotinamide] | < 1000 nM |
| O=C(NC1CCN(Cc2ccc(OC(F)(F)F)cc2)C[C@H]1F)c1ccc(C(=O)N2CCC(C(=O)c3ccc(N4CCOCC4)cc3)CC2)nc1 (stereo partly drawn) [Compound 7-53, N-((3,4-trans)-3-fluoro-1-(4-(trifluoromethoxy)benzyl)piperidin-4-yl)-6-(4-(4-morpholinobenzoyl)piperidine-1-carbonyl)nicotinamide] | < 1000 nM |

More lines, now with the values ahead:

| EC50 | SMILES |
| --- | --- |
| < 1000 nM | COc1ccc(CN2CCC(NC(=O)c3ccc(C(=O)N4CCC(C(=O)c5ccc(OC)cc5)CC4)nc3)[C@H](F)C2)cc1 (stereo partly drawn) [Compound 7-26, N-((3,4-trans)-3-fluoro-1-(4-methoxybenzyl)piperidin-4-yl)-6-(4-(4-methoxybenzoyl)piperidine-1-carbonyl)nicotinamide] |
| < 1000 nM | COc1ccc(C(=O)C2CCN(C(=O)c3ccc(C(=O)NC4CCN(Cc5cccc(C#N)c5)C[C@@H]4F)cn3)CC2)cc1 (stereo partly drawn) [Compound 7-27, N-((3,4-trans)-1-(3-cyanobenzyl)-3-fluoropiperidin-4-yl)-6-(4-(4-methoxybenzoyl)piperidine-1-carbonyl)nicotinamide] |
| < 1000 nM | COc1ccc(C(=O)C2CCN(C(=O)c3ccc(C(=O)NC4CCN(Cc5ccc(C(F)(F)F)cc5)C[C@@H]4F)cn3)CC2)cc1 (stereo partly drawn) [Compound 7-28, N-((3,4-trans)-3-fluoro-1-(4-(trifluoromethyl)benzyl)piperidin-4-yl)-6-(4-(4-methoxybenzoyl)piperidine-1-carbonyl)nicotinamide] |
| < 1000 nM | COc1ccc(C(=O)C2CCN(C(=O)c3ccc(C(=O)NC4CCN(Cc5cccc(C#N)c5)C[C@H]4F)cn3)CC2)cc1 (stereo partly drawn) [Compound 7-29, N-((3,4-trans)-1-(3-cyanobenzyl)-3-fluoropiperidin-4-yl)-6-(4-(4-methoxybenzoyl)piperidine-1-carbonyl)nicotinamide] |
| < 1000 nM | COc1ccc(C(=O)C2CCN(C(=O)c3ccc(C(=O)NC4CCN(Cc5cccc(OC)c5)C[C@H]4F)cn3)CC2)cc1 (stereo partly drawn) [Compound 7-30, N-((3,4-trans)-3-fluoro-1-(3-methoxybenzyl)piperidin-4-yl)-6-(4-(4-methoxybenzoyl)piperidine-1-carbonyl)nicotinamide] |
| < 1000 nM | COc1ccc(C(=O)C2CCN(C(=O)c3ccc(C(=O)NC4CCN(Cc5cccc(C(F)(F)F)c5)C[C@H]4F)cn3)CC2)cc1 (stereo partly drawn) [Compound 7-32, N-((3,4-trans)-3-fluoro-1-(3-(trifluoromethyl)benzyl)piperidin-4-yl)-6-(4-(4-methoxybenzoyl)piperidine-1-carbonyl)nicotinamide] |
| < 1000 nM | COc1ccc(C(=O)C2CCN(C(=O)c3ccc(C(=O)NC4CCN(Cc5ccc(OC(F)(F)F)cc5)C[C@H]4F)cn3)CC2)cc1 (stereo partly drawn) [Compound 7-33, (3,4-trans)-3-fluoro-4-(6-(4-(4-methoxybenzoyl)piperidine-1-carbonyl)nicotinamido)-1-(4-(trifluoromethoxy)benzyl) piperidinium] |
| < 1000 nM | COc1ccc(C(=O)C2CCN(C(=O)c3ccc(C(=O)NC4CCN(Cc5cccc(C(F)(F)F)c5)C[C@@H]4F)cn3)CC2)cc1 (stereo partly drawn) [Compound 7-34, N-((3,4-trans)-3-fluoro-1-(3-(trifluoromethyl)benzyl)piperidin-4-yl)-6-(4-(4-methoxybenzoyl)piperidine-1-carbonyl)nicotinamide] |
| < 1000 nM | COc1ccc(C(=O)C2CCN(C(=O)c3ccc(C(=O)NC4CCN(Cc5ccc(F)c(C)c5)C[C@H]4F)cn3)CC2)cc1 (stereo partly drawn) [Compound 7-37, N-((3,4-trans)-3-fluoro-1-(4-fluoro-3-methylbenzyl)piperidin-4-yl)-6-(4-(4-methoxybenzoyl)piperidine-1-carbonyl)nicotinamide] |
| 1000 to 10000 nM | COc1ccc(C(=O)C2CCN(C(=O)c3ccc(C(=O)NC4CCN(Cc5ccc(-n6ccnc6)cc5)C[C@H]4F)cn3)CC2)cc1 (stereo partly drawn) [Compound 7-42, N-((3,4-trans)-1-(4-(1H-imidazol-1-yl)benzyl)-3-fluoropiperidin-4-yl)-6-(4-(4-methoxybenzoyl)piperidine-1-carbonyl)nicotinamide] |
| < 1000 nM | COc1ccc(C(=O)C2CCN(C(=O)c3ccc(C(=O)NC4CCN(Cc5ccc(F)c(OC)c5)C[C@H]4F)cn3)CC2)cc1 (stereo partly drawn) [Compound 7-43, N-((3,4-trans)-3-fluoro-1-(4-fluoro-3-methoxybenzyl)piperidin-4-yl)-6-(4-(4-methoxybenzoyl)piperidine-1-carbonyl)nicotinamide] |
| < 1000 nM | COc1ccc(C(=O)C2CCN(C(=O)c3ccc(C(=O)NC4CCN(Cc5ccc(OC)c(F)c5)C[C@H]4F)cn3)CC2)cc1 (stereo partly drawn) [Compound 7-44, N-((3,4-trans)-3-fluoro-1-(3-fluoro-4-methoxybenzyl)piperidin-4-yl)-6-(4-(4-methoxybenzoyl)piperidine-1-carbonyl)nicotinamide] |
| < 1000 nM | COc1ccc(C(=O)C2CCN(C(=O)c3ccc(C(=O)NC4CCN(Cc5ccc(F)c(C(F)(F)F)c5)C[C@H]4F)cn3)CC2)cc1 (stereo partly drawn) [Compound 7-45, N-((3,4-trans)-3-fluoro-1-(4-fluoro-3-(trifluoromethyl)benzyl)piperidin-4-yl)-6-(4-(4-methoxybenzoyl)piperidine-1-carbonyl)nicotinamide] |
| 1000 to 10000 nM | COc1ccc(C(=O)C2CCN(C(=O)c3ccc(C(=O)NC4CCN(Cc5ccc(OC)c(C#N)c5)C[C@H]4F)cn3)CC2)cc1 (stereo partly drawn) [Compound 7-55, N-((3,4-trans)-1-(3-cyano-4-methoxybenzyl)-3-fluoropiperidin-4-yl)-6-(4-(4-methoxybenzoyl)piperidine-1-carbonyl)nicotinamide] |
| 1000 to 10000 nM | COc1ccc(C(=O)C2CCN(C(=O)c3ccc(C(=O)NC4CCN(Cc5ccc(C#N)cc5C)C[C@H]4F)cn3)CC2)cc1 (stereo partly drawn) [Compound 7-56, N-((3,4-trans)-1-(4-cyano-2-methylbenzyl)-3-fluoropiperidin-4-yl)-6-(4-(4-methoxybenzoyl)piperidine-1-carbonyl)nicotinamide] |
